Assay results taken from a compilation of properties of binary mixtures (doi:10.1021/acs.jced.0c01028).

Assay: xn = mol fraction of the nth substance listed
Conditions: 81.5 kPa

CCCCC(C)O (configuration not stated) + CCCC[n+]1ccn(C)c1.N#C[S-]
speed of sound (288.15 K, x2 = 0): 1299 m/s
speed of sound (288.15 K, x2 = 0.2003): 1397 m/s
speed of sound (288.15 K, x2 = 0.2992): 1448 m/s
speed of sound (288.15 K, x2 = 0.3988): 1497 m/s
speed of sound (288.15 K, x2 = 0.4964): 1549 m/s
speed of sound (288.15 K, x2 = 0.6029): 1601 m/s
speed of sound (288.15 K, x2 = 0.6993): 1653 m/s
speed of sound (288.15 K, x2 = 0.8987): 1748 m/s
speed of sound (298.15 K, x2 = 0.1011): 1316 m/s
speed of sound (298.15 K, x2 = 0.2003): 1366 m/s
speed of sound (298.15 K, x2 = 0.3988): 1469 m/s
speed of sound (298.15 K, x2 = 0.4964): 1521 m/s
speed of sound (298.15 K, x2 = 0.6029): 1574 m/s
speed of sound (298.15 K, x2 = 0.6993): 1628 m/s
speed of sound (298.15 K, x2 = 0.7996): 1673 m/s
speed of sound (298.15 K, x2 = 0.8987): 1724 m/s
speed of sound (308.15 K, x2 = 0): 1226 m/s
speed of sound (308.15 K, x2 = 0.1011): 1283 m/s
speed of sound (308.15 K, x2 = 0.2003): 1335 m/s
speed of sound (308.15 K, x2 = 0.2992): 1389 m/s
speed of sound (308.15 K, x2 = 0.3988): 1441 m/s
speed of sound (308.15 K, x2 = 0.4964): 1494 m/s
speed of sound (308.15 K, x2 = 0.6029): 1549 m/s
speed of sound (308.15 K, x2 = 0.6993): 1603 m/s
speed of sound (308.15 K, x2 = 0.8987): 1700 m/s
speed of sound (318.15 K, x2 = 0): 1189 m/s
speed of sound (318.15 K, x2 = 0.2003): 1304 m/s
speed of sound (318.15 K, x2 = 0.4964): 1471 m/s
speed of sound (318.15 K, x2 = 0.6029): 1530 m/s
speed of sound (318.15 K, x2 = 0.6993): 1581 m/s
speed of sound (318.15 K, x2 = 0.7996): 1632 m/s
speed of sound (318.15 K, x2 = 0.8987): 1676 m/s
speed of sound (328.15 K, x2 = 0): 1153 m/s
speed of sound (328.15 K, x2 = 0.2992): 1331 m/s
speed of sound (328.15 K, x2 = 0.3988): 1385 m/s
speed of sound (328.15 K, x2 = 0.4964): 1441 m/s
speed of sound (328.15 K, x2 = 0.6029): 1498 m/s
speed of sound (328.15 K, x2 = 0.6993): 1554 m/s
speed of sound (328.15 K, x2 = 0.7996): 1601 m/s
speed of sound (328.15 K, x2 = 0.8987): 1653 m/s
speed of sound (338.15 K, x2 = 0): 1117 m/s
speed of sound (338.15 K, x2 = 0.1011): 1183 m/s
speed of sound (338.15 K, x2 = 0.2992): 1302 m/s
speed of sound (338.15 K, x2 = 0.3988): 1357 m/s
speed of sound (338.15 K, x2 = 0.6029): 1474 m/s
speed of sound (338.15 K, x2 = 0.7996): 1577 m/s
speed of sound (338.15 K, x2 = 0.8987): 1630 m/s

CCCC[n+]1ccn(C)c1.N#C[S-] + CCCCC(C)O
speed of sound (298.15 K, x1 = 1): 1762 m/s
speed of sound (308.15 K, x1 = 1): 1738 m/s
speed of sound (318.15 K, x1 = 1): 1714 m/s
speed of sound (328.15 K, x1 = 1): 1691 m/s
speed of sound (338.15 K, x1 = 1): 1668 m/s
